Measured values published in the NIST ThermoML archive (doi:10.1021/je500380x).
Numbers after ± are expanded uncertainties.

Assay: mn = molality of the nth substance listed, in mol/kg
Settings: 100 kPa, Liquid; for electrical conductivity: Alternating current cell with electrodes; for viscosity: Falling or rolling sphere viscometry; for mass density: Vibrating tube method

CCC(=O)OCCN1CCNCC1 [2-(piperazin-1-yl)ethyl propionate] + CO
Settings | electrical conductivity [S/m] | mass density [kg/m3] | viscosity [mPa·s]
293.15 K, m1 = 0.05 | 0.128 ± 0.0013 | 794.44 ± 0.15 | 0.613 ± 0.008
293.15 K, m1 = 0.1001 | 0.211 ± 0.002 | 797.52 ± 0.15 | 0.632 ± 0.008
293.15 K, m1 = 0.2006 | 0.339 ± 0.003 | 803.64 ± 0.15 | 0.675 ± 0.008
293.15 K, m1 = 0.3003 | 0.432 ± 0.004 | 809.65 ± 0.15 | 0.72 ± 0.009
293.15 K, m1 = 0.3995 | 0.506 ± 0.005 | 815.7 ± 0.15 | 0.771 ± 0.01
293.15 K, m1 = 0.5005 | 0.566 ± 0.006 | 821.73 ± 0.15 | 0.828 ± 0.01
293.15 K, m1 = 0.6006 | 0.617 ± 0.006 | 827.94 ± 0.14 | 0.89 ± 0.011
293.15 K, m1 = 0.7007 | 0.657 ± 0.007 | 834.12 ± 0.14 | 0.954 ± 0.012
293.15 K, m1 = 0.8007 | 0.688 ± 0.007 | 840.22 ± 0.14 | 1.033 ± 0.013
293.15 K, m1 = 0.9008 | 0.712 ± 0.007 | 846.35 ± 0.14 | 1.118 ± 0.014
293.15 K, m1 = 1.001 | 0.732 ± 0.007 | 852.36 ± 0.14 | 1.219 ± 0.015
293.15 K, m1 = 1.2 | 0.757 ± 0.008 | 864.62 ± 0.14 | 1.426 ± 0.018
293.15 K, m1 = 1.401 | 0.752 ± 0.008 | 877.59 ± 0.13 | 1.719 ± 0.021
293.15 K, m1 = 1.6 | 0.737 ± 0.007 | 890.02 ± 0.13 | 2.09 ± 0.026
293.15 K, m1 = 1.801 | 0.706 ± 0.007 | 903.1 ± 0.13 | 2.581 ± 0.032
293.15 K, m1 = 2 | 0.656 ± 0.007 | 916.07 ± 0.13 | 3.261 ± 0.04
293.15 K, m1 = 2.203 | 0.605 ± 0.006 | 929.95 ± 0.12 | 4.138 ± 0.051
293.15 K, m1 = 2.403 | 0.542 ± 0.005 | 942.83 ± 0.12 | 5.479 ± 0.068
293.15 K, m1 = 2.603 | 0.479 ± 0.005 | 955.65 ± 0.12 | 7.28 ± 0.09
293.15 K, m1 = 2.803 | 0.409 ± 0.004 | 969.71 ± 0.12 | 9.916 ± 0.12
293.15 K, m1 = 3.001 | – | 982.22 ± 0.11 | 14.36 ± 0.18
293.15 K, m1 = 3.006 | 0.342 ± 0.003 | – | –
298.15 K, m1 = 0.05 | 0.132 ± 0.0014 | 789.75 ± 0.15 | 0.576 ± 0.007
298.15 K, m1 = 0.1001 | 0.218 ± 0.002 | 792.84 ± 0.15 | 0.592 ± 0.007
298.15 K, m1 = 0.2006 | 0.351 ± 0.004 | 798.96 ± 0.15 | 0.629 ± 0.008
298.15 K, m1 = 0.3003 | 0.448 ± 0.005 | 805.01 ± 0.15 | 0.671 ± 0.008
298.15 K, m1 = 0.3995 | 0.525 ± 0.005 | 811.06 ± 0.15 | 0.716 ± 0.009
298.15 K, m1 = 0.5005 | 0.59 ± 0.006 | 817.14 ± 0.15 | 0.767 ± 0.01
298.15 K, m1 = 0.6006 | 0.644 ± 0.006 | 823.36 ± 0.14 | 0.823 ± 0.01
298.15 K, m1 = 0.7007 | 0.686 ± 0.007 | 829.58 ± 0.14 | 0.881 ± 0.011
298.15 K, m1 = 0.8007 | 0.72 ± 0.007 | 835.68 ± 0.14 | 0.952 ± 0.012
298.15 K, m1 = 0.9008 | 0.748 ± 0.008 | 841.84 ± 0.14 | 1.029 ± 0.013
298.15 K, m1 = 1.001 | 0.77 ± 0.008 | 847.87 ± 0.14 | 1.117 ± 0.014
298.15 K, m1 = 1.2 | 0.794 ± 0.008 | 860.2 ± 0.14 | 1.303 ± 0.016
298.15 K, m1 = 1.401 | 0.797 ± 0.008 | 873.21 ± 0.13 | 1.562 ± 0.019
298.15 K, m1 = 1.6 | 0.784 ± 0.008 | 885.7 ± 0.13 | 1.888 ± 0.023
298.15 K, m1 = 1.801 | 0.755 ± 0.008 | 898.85 ± 0.13 | 2.319 ± 0.029
298.15 K, m1 = 2 | 0.708 ± 0.007 | 911.8 ± 0.13 | 2.909 ± 0.036
298.15 K, m1 = 2.203 | 0.653 ± 0.007 | 925.82 ± 0.12 | 3.661 ± 0.045
298.15 K, m1 = 2.403 | 0.587 ± 0.006 | 938.76 ± 0.12 | 4.801 ± 0.059
298.15 K, m1 = 2.603 | 0.518 ± 0.005 | 951.62 ± 0.12 | 6.312 ± 0.078
298.15 K, m1 = 2.803 | 0.457 ± 0.005 | 964.72 ± 0.12 | 8.495 ± 0.11
298.15 K, m1 = 3.001 | – | 978.3 ± 0.11 | 12.13 ± 0.15
298.15 K, m1 = 3.006 | 0.392 ± 0.004 | – | –
303.15 K, m1 = 0.05 | 0.136 ± 0.0014 | 785.03 ± 0.15 | 0.542 ± 0.007
303.15 K, m1 = 0.1001 | 0.224 ± 0.002 | 788.13 ± 0.15 | 0.556 ± 0.007
303.15 K, m1 = 0.2006 | 0.362 ± 0.004 | 794.26 ± 0.15 | 0.589 ± 0.007
303.15 K, m1 = 0.3003 | 0.465 ± 0.005 | 800.33 ± 0.15 | 0.627 ± 0.008
303.15 K, m1 = 0.3995 | 0.547 ± 0.006 | 806.4 ± 0.15 | 0.668 ± 0.008
303.15 K, m1 = 0.5005 | 0.615 ± 0.006 | 812.5 ± 0.15 | 0.713 ± 0.009
303.15 K, m1 = 0.6006 | 0.672 ± 0.007 | 818.75 ± 0.15 | 0.764 ± 0.009
303.15 K, m1 = 0.7007 | 0.715 ± 0.007 | 824.99 ± 0.14 | 0.816 ± 0.01
303.15 K, m1 = 0.8007 | 0.756 ± 0.008 | 831.13 ± 0.14 | 0.881 ± 0.011
303.15 K, m1 = 0.9008 | 0.785 ± 0.008 | 837.3 ± 0.14 | 0.95 ± 0.012
303.15 K, m1 = 1.001 | 0.813 ± 0.008 | 843.36 ± 0.14 | 1.028 ± 0.013
303.15 K, m1 = 1.2 | 0.839 ± 0.008 | 855.75 ± 0.14 | 1.194 ± 0.015
303.15 K, m1 = 1.401 | 0.849 ± 0.009 | 868.82 ± 0.13 | 1.425 ± 0.018
303.15 K, m1 = 1.6 | 0.837 ± 0.008 | 881.35 ± 0.13 | 1.713 ± 0.021
303.15 K, m1 = 1.801 | 0.813 ± 0.008 | 894.62 ± 0.13 | 2.093 ± 0.026
303.15 K, m1 = 2 | 0.766 ± 0.008 | 907.8 ± 0.13 | 2.606 ± 0.032
303.15 K, m1 = 2.203 | 0.712 ± 0.007 | 921.66 ± 0.12 | 3.257 ± 0.04
303.15 K, m1 = 2.403 | 0.648 ± 0.007 | 934.65 ± 0.12 | 4.233 ± 0.052
303.15 K, m1 = 2.603 | 0.571 ± 0.006 | 947.56 ± 0.12 | 5.512 ± 0.068
303.15 K, m1 = 2.803 | 0.505 ± 0.005 | 960.73 ± 0.12 | 7.332 ± 0.091
303.15 K, m1 = 3.001 | – | 974.37 ± 0.12 | 10.32 ± 0.13
303.15 K, m1 = 3.006 | 0.439 ± 0.004 | – | –
308.15 K, m1 = 0.05 | 0.139 ± 0.0014 | – | 0.512 ± 0.006
308.15 K, m1 = 0.1001 | 0.232 ± 0.002 | – | 0.523 ± 0.007
308.15 K, m1 = 0.2006 | 0.374 ± 0.004 | – | 0.554 ± 0.007
308.15 K, m1 = 0.3003 | 0.482 ± 0.005 | – | 0.588 ± 0.007
308.15 K, m1 = 0.3995 | 0.566 ± 0.006 | – | 0.625 ± 0.008
308.15 K, m1 = 0.5005 | 0.641 ± 0.006 | – | 0.665 ± 0.008
308.15 K, m1 = 0.6006 | 0.701 ± 0.007 | – | 0.711 ± 0.009
308.15 K, m1 = 0.7007 | 0.748 ± 0.008 | – | 0.758 ± 0.009
308.15 K, m1 = 0.8007 | 0.792 ± 0.008 | – | 0.817 ± 0.01
308.15 K, m1 = 0.9008 | 0.824 ± 0.008 | – | 0.879 ± 0.011
308.15 K, m1 = 1.001 | 0.858 ± 0.009 | – | –
308.15 K, m1 = 1.2 | 0.883 ± 0.009 | – | –
308.15 K, m1 = 1.401 | 0.892 ± 0.009 | – | –
308.15 K, m1 = 1.6 | 0.889 ± 0.009 | – | –
308.15 K, m1 = 1.801 | 0.862 ± 0.009 | – | –
308.15 K, m1 = 2 | 0.818 ± 0.008 | – | –
308.15 K, m1 = 2.203 | 0.766 ± 0.008 | – | –
308.15 K, m1 = 2.403 | 0.703 ± 0.007 | – | –
308.15 K, m1 = 2.603 | 0.626 ± 0.006 | – | –
308.15 K, m1 = 2.803 | 0.559 ± 0.006 | – | –
308.15 K, m1 = 3.006 | 0.483 ± 0.005 | – | –
